What is called % inhibition is the relative decrease from the control value, in per cent. A higher % inhibition goes with strong suppression.

The values that follow come from patent publication US8071631B2, “Small molecule inhibitors of kynurenine-3-monooxygenase” (The J. David Gladstone Institutes, A Testamentary Trust …, priority 2006, dated 2011).

Molecules are shown by their SMILES.

The assay concerns kynurenine-3-monooxygenase (KMO). Briefly: KMO inhibition, radiometric assay per Erickson et al. (release of 3H2O from L-[3,5-3H]-kynurenine). In kind it is biochemical. Conditions: compound at 10 μM. The method, then:
The KMO inhibiting activities of the compounds of the present invention were evaluated using standard methods. See Erickson et al., A Radiometric Assay for Kynurenine 3-Hydroxylase Based on the Release of ^3H2O During Hydroxylation of L-[3,5-^3H]-Kynurenine, Anal. Biochem. 1992, 205, 257-262, the disclosure of which is hereby incorporated by reference.
The IC50 value is the half maximal inhibitory concentration and represents the concentration of an inhibitor that is required for 50% inhibition of an enzyme activity and the percent inhibition measures the amount of enzyme activity inhibited at a given concentration of compound. If the administered compound is a prodrug then the prodrug may not inhibit KMO until it has metabolized appropriately.

In the case of `COc1ccc(S(=O)(=O)[N-]c2cccc(-c3ccccc3)c2)cc1OC.[K+]` [Compound A22, Potassium 3,4-dimethoxy-N-[biphenyl-3-yl]benzenesulfonamide], the “% inhibition at 10 μM” value turned out to be 19.57%.

With `COc1ccc(S(=O)(=O)Nc2nnc(-c3ccccc3)s2)cc1OC` [Compound A5, 3,4-dimethoxy-N-[5-(phenyl)-1,3,4-thiadiazol-2-yl]benzenesulfonamide], the “% inhibition at 10 μM” value worked out at 60.03%.

With `Cc1ccc(S(=O)(=O)Nc2cc(-c3ccccc3)no2)cc1` [Compound A14, 4-methyl-N-[3-(phenyl)-isoxazol-5-yl]benzenesulfonamide], the “% inhibition at 10 μM” value stood at 30.74%.

As to `COc1ccc(S(=O)(=O)Nc2ccc(-c3ccccc3)cn2)cc1OC` [Compound A25, 3,4-dimethoxy-N-[5-(phenyl)-pyridine-2-yl]benzenesulfonamide], the “% inhibition at 10 μM” value is reported as 24.8%.

As to `Cc1ccc(S(=O)(=O)Nc2nc(-c3ccccc3)ns2)cc1` [Compound A2, 4-methyl-N-[3-(phenyl)-1,2,4-thiadiazol-5-yl]benzenesulfonamide], the “% inhibition at 10 μM” value was 77.9%.

As to `Cc1ccc(S(=O)(=O)Nc2nnc(-c3ccccc3)s2)cc1` [Compound A6, 4-methyl-N-[5-(phenyl)-1,3,4-thiadiazol-2-yl]benzenesulfonamide], the “% inhibition at 10 μM” value came out at 71.59%.

Turning to `COc1ccc(S(=O)(=O)Nc2nsc(-c3ccc(Cl)cc3)n2)cc1OC` [Compound A19, 3,4-dimethoxy-N-[5-(4-chlorophenyl)-1,2,4-thiadiazole-3-yl]benzenesulfonamide], the “% inhibition at 10 μM” value was determined as 68.6%.

Take `COc1ccc(-c2cnc(NS(=O)(=O)c3ccc(OC)c(OC)c3)nc2)cc1` [Compound A23, 3,4-dimethoxy-N-[5-(4-methoxyphenyl)-pyrimidine-2-yl]benzenesulfonamide]: the “% inhibition at 10 μM” value is recorded as 17.5%.

On to `COc1ccc(S(=O)(=O)Nc2cc(-c3ccccc3)no2)cc1OC` [Compound A13, 3,4-dimethoxy-N-[3-(phenyl)-isoxazol-5-yl]benzenesulfonamide], for which the “% inhibition at 10 μM” value is 17.82%.

`COc1ccc(S(=O)(=O)Nc2nc(-c3ccccc3)ns2)cc1OC` [Compound A1, 3,4-dimethoxy-N-[3-(phenyl)-1,2,4-thiadiazol-5-yl]benzenesulfonamide]: the “% inhibition at 10 μM” value is 73.61%.
